Reference: US12043599B2, “Herbicidal compounds” (SYNGENTA PARTICIPATIONS AG, priority 2018, dated 2024)

Assays:
Assay type in all cases: in vivo
Details in all cases: 250 g/h, evaluated after 13 days
[1] = test system: Setaria faberi (SETFA); test: Pre-emergence herbicidal glasshouse test, percentage damage
Summary of the method: (§1)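 Glasshouse, 24/16 °C, 14 h photoperiod, 65% humidity. Sprayed at 250 g/h pre- (1 d) or post-emergence (8 d); evaluated 13 d after spraying, 5-point damage scale.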

[2] = test system: Lolium perenne (LOLPE); test: as above
Summary of the method: as §1

[3] = test system: Echinochloa crus-galli (ECHCG); test: as above
Summary of the method: as §1

[4] = test system: Avena fatua (AVEFA); test: as above
Summary of the method: as §1

[5] = test system: Alopecurus myosuroides (ALOMY); test: as above
Summary of the method: as §1

[6] = test system: Setaria faberi (SETFA); test: Post-emergence herbicidal glasshouse test, percentage damage
Summary of the method: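 Percentage damage was scored 13 days after treatment on a five-point scale (1=0-19% to 5=80-100%). Treatments were post-emergence sprays on 8-day-old wheat, barley and SETFA plants in a glasshouse (24/16 °C day/night, 14 h light, 65% humidity), using acetone/water 50:50 with 0.5% Tween 20 at the stated rates. Wheat additionally received cloquintocet-mexyl safener at 50 g/ha.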

[7] = test system: Lolium perenne (LOLPE); test: as above
Summary of the method: as §1

[8] = test system: Echinochloa crus-galli (ECHCG); test: as above
Summary of the method: as §1

[9] = test system: Avena fatua (AVEFA); test: as above
Summary of the method: as §1

[10] = test system: Alopecurus myosuroides (ALOMY); test: as above
Summary of the method: as §1

SMILES	SETFA PRE percentage damage (five point scale) [1]	LOLPE PRE percentage damage (five point scale) [2]	ECHCG PRE percentage damage (five point scale) [3]	AVEFA PRE percentage damage (five point scale) [4]	ALOMY PRE percentage damage (five point scale) [5]	SETFA POST percentage damage (five point scale) [6]	LOLPE POST percentage damage (five point scale) [7]	ECHCG POST percentage damage (five point scale) [8]	AVEFA POST percentage damage (five point scale) [9]	ALOMY POST percentage damage (five point scale) [10]
CC#Cc1cc(C)c(C2C(=O)CC3(CCN(C(=O)NC(=O)c4cccnc4)CC3)CC2=O)c(C)c1 [Compound A145]	5 (5=80-100%)	4 (4=60-79%)	5 (5=80-100%)	2 (2=20-39%)	3 (3=40-59%)	5 (5=80-100%)	5 (5=80-100%)	5 (5=80-100%)	5 (5=80-100%)	5 (5=80-100%)
CC#Cc1cc(C)c(C2=C(OC(=O)OC)CC3(CCN(C(=O)NC(C)=O)CC3)CC2=O)c(C)c1 [Compound P53]	5 (5=80-100%)	4 (4=60-79%)	5 (5=80-100%)	5 (5=80-100%)	4 (4=60-79%)	5 (5=80-100%)	5 (5=80-100%)	5 (5=80-100%)	5 (5=80-100%)	5 (5=80-100%)
CC#Cc1cc(C)c(C2C(=O)CC3(CCN(C(=O)c4ccc(C(F)(F)F)cn4)CC3)CC2=O)c(C)c1 [Compound A89]	5 (5=80-100%)	5 (5=80-100%)	5 (5=80-100%)	5 (5=80-100%)	5 (5=80-100%)	5 (5=80-100%)	5 (5=80-100%)	5 (5=80-100%)	5 (5=80-100%)	5 (5=80-100%)
CC#Cc1cc(C)c(C2C(=O)CC3(CCN(C(=O)c4ccccc4)CC3)CC2=O)c(C)c1 [Compound A7]	5 (5=80-100%)	5 (5=80-100%)	5 (5=80-100%)	5 (5=80-100%)	5 (5=80-100%)	5 (5=80-100%)	5 (5=80-100%)	5 (5=80-100%)	5 (5=80-100%)	5 (5=80-100%)
CC#Cc1cc(C)c(C2=C(OC(=O)OC)CC3(CCN(C(=O)c4cccnn4)CC3)CC2=O)c(C)c1 [Compound P30]	5 (5=80-100%)	5 (5=80-100%)	5 (5=80-100%)	5 (5=80-100%)	5 (5=80-100%)	5 (5=80-100%)	5 (5=80-100%)	5 (5=80-100%)	5 (5=80-100%)	5 (5=80-100%)
CC#Cc1cc(C)c(C2C(=O)CC3(CCN(C(=O)CCOCC)CC3)CC2=O)c(C)c1 [Compound A172]	5 (5=80-100%)	5 (5=80-100%)	5 (5=80-100%)	5 (5=80-100%)	5 (5=80-100%)	5 (5=80-100%)	5 (5=80-100%)	5 (5=80-100%)	5 (5=80-100%)	5 (5=80-100%)
CC#Cc1cc(C)c(C2C(=O)CC3(CCN(C(=O)c4cnccn4)CC3)CC2=O)c(C)c1 [Compound A16]	5 (5=80-100%)	5 (5=80-100%)	5 (5=80-100%)	5 (5=80-100%)	5 (5=80-100%)	5 (5=80-100%)	5 (5=80-100%)	5 (5=80-100%)	5 (5=80-100%)	5 (5=80-100%)
